Source: US8603527B2, “Pharmaceutical formulations of a substituted diaminopurine” (Signal Pharmaceuticals, LLC, priority 2010, dated 2013)

Experiment: Pharmacokinetics (plasma and urine) of ascending multiple oral doses in healthy volunteers
Format: in vivo, human
Design: Cmax: unit: ng/mL
Conditions: for AUC(0-∞) / Cmax / Ctrough / RA (ratio of accumulation) / t1/2 / Tmax: Day 14 (N = 8); for AUC(0-∞) / Cmax / Ctrough / RA (ratio of accumulation) / t1/2 / AUC(0-τ): geometric mean; for Tmax: median; for AUC(0-τ): Day 14, τ = 24 hours (N = 8)
Excerpt: Subjects: Forty healthy male and female subjects between the ages of 20 and 50 were enrolled in the study. All subjects were in good health as determined by a medical history, physical examination, 12-lead ECG, serum biochemistry, hematology, urinalysis and virology. Subjects were not permitted to take any prescribed medication within 30 days or non-prescribed medication within 7 days of the first dose administration.
Study Design: This study was a randomized, double-blind, placebo-controlled, ascending-dose trial to evaluate the safety, tolerability and pharmacokinetics (PK) of multiple oral doses of Compound I. Subjects were enrolled into 1 of the 4 cohorts, 10 subjects per cohort (active:placebo=8:2). Subjects received a multiple oral dose of 25, 50, 100, or 200 mg unformulated Compound I in a capsule, or matching placebo, once daily (QD) for 14 days.
Assessments: Safety and tolerability were assessed by adverse event (AE) monitoring, clinical laboratory testing, vital sign measurement, 12-lead ECG measurement, concomitant medication assessment, and physical examination. Blood and urine samples were collected to assess the PK profile of Compound I and the S-cis isomer of Compound I. Blood samples (˜5 mL) for plasma PK analysis were collected in K2-EDTA vacutainer tubes to yield approximately 2 mL of plasma at each of the following time points: (i) Day 1: before dosing, and 0.25, 0.5, 1, 1.5, 2, 2.5, 3, 4, 6, 8, 10, 12, 16, and 24 hours after dosing; (ii) Day 3 to Day 9: before dosing; (iii) Day 10: before dosing, and 0.25, 0.5, 1, 1.5, 2, 2.5, 3, 4, 6, 8, 10, 12, and 16 hours after dosing; (iv) Day 11 to Day 13: before dosing; (v) Day 14: before dosing, and 0.25, 0.5, 1, 1.5, 2, 2.5, 3, 4, 6, 8, 10, 12, 16, 24, 48, 72, 96, 120, 144, and 168 hours after dosing. Urine samples for the PK analysis were collected as a single block at: (i) Day 1: before dosing (spot collection), 0 to 8, 8 to 16, and 16 to 24 hours after dosing; and (ii) Day 14: 0 to 8, 8 to 16, and 16 to 24 hours after dosing. Both plasma and urine concentrations of Compound I and its S-cis isomer were measured using validated liquid chromatography-tandem mass spectrometry (LC/MS/MS).
Data Analysis: Safety data were summarized using descriptive statistics by treatment. PK parameters for Compound I and its S-cis isomer were calculated using non-compartmental analysis using WinNonlin (Version 5.0.1 or greater; Pharsight Corporation, Mountain View, Calif.). Dose proportionality and dose independence were evaluated by visual inspection. Intra-subject variability was assessed using an ANOVA model using data from Days 10 and 14.

[1] = S-cis isomer in plasma after Compound I 25 mg QD
[2] = S-cis isomer in plasma after Compound I 50 mg QD
[3] = S-cis isomer in plasma after Compound I 100 mg QD
[4] = S-cis isomer in plasma after Compound I 200 mg QD

AUC(0-∞) [1]: 180.14 ng·h/mL
Cmax [1]: 5.43 ng/mL
Ctrough [1]: 2.33 ng/mL
RA (ratio of accumulation) [1]: 2.02
t1/2 [1]: 28.82 h
Tmax [1]: 2.5 h
AUC(0-τ) [1]: 78.40 ng·h/mL
AUC(0-∞) [2]: 365.88 ng·h/mL
Cmax [2]: 11.61 ng/mL
Ctrough [2]: 4.93 ng/mL
RA (ratio of accumulation) [2]: 2.28
t1/2 [2]: 25.39 h
Tmax [2]: 3.0 h
AUC(0-τ) [2]: 177.01 ng·h/mL
AUC(0-∞) [3]: 541.06 ng·h/mL
Cmax [3]: 14.87 ng/mL
Ctrough [3]: 7.14 ng/mL
RA (ratio of accumulation) [3]: 1.88
t1/2 [3]: 28.17 h
Tmax [3]: 2.5 h
AUC(0-τ) [3]: 237.26 ng·h/mL
AUC(0-∞) [4]: 804.07 ng·h/mL
Cmax [4]: 27.69 ng/mL
Ctrough [4]: 10.90 ng/mL
RA (ratio of accumulation) [4]: 1.50
t1/2 [4]: 23.93 h
Tmax [4]: 2.5 h
AUC(0-τ) [4]: 404.33 ng·h/mL
systemic exposure relative to that of Compound I (after Compound I QD dosing): about 2%
Structure (SMILES): OC1CCC(Nc2ncc3nc(Nc4c(F)cc(F)cc4F)n(C4CCOC4)c3n2)CC1 (stereo not drawn) [S-cis isomer of Compound I]
